Values of other authors, collected in patent US10478399B2, “Modified release tablet composition comprising mirabegron” (SYNTHON B.V., priority 2017, dated 2019).

How the values were obtained:
[1] = neutral to acidic pH
[2] = presence of food in the GI tract

permeability (BCS): low permeability
solubility (BCS): high solubility
effect of food on bioavailability [2]: affected by the presence of food
Compound: Nc1nc(CC(=O)Nc2ccc(CCNC[C@H](O)c3ccccc3)cc2)cs1 [Mirabegron, (R)-2-(2-aminothiazol-4-yl)-4′-[2-[(2-hydroxy-2-phenylethyl)amino]ethyl]acetic acid anilide]
solubility in water [1]: soluble in water between neutral to acidic pH
